Measurements from patent EP4782431A1 (Suzhou Merna Therapeutics Co. Ltd, priority 2023, dated 2025).

Assays:
HaCaT cells [1] = assay: m6A methylation level of human keratinocytes (EpiQuik m6A RNA methylation quantification kit); assay type: cell-based; conditions: for m6A fold change: 24 hours
Procedure: HaCaT cells were cultured in DMEM culture medium containing 10% fetal bovine serum, 100 U/mL penicillin, and 100 µg/mL streptomycin. Culture dishes were placed in an incubator containing 5% CO2 for culture at 37°C for 24 hours. An equal volume of DMSO was added in control group 1, 50 nM sorafenib, capecitabine, docetaxel, and osimertinib were respectively added in control groups A, B, C, and D, and 400 nM test compounds or nicotinamide were respectively added in sample groups A1, A2, B1, B2, C1, C2, D1, and D2 after the addition of 50 nM corresponding compounds. The cells were continuously cultured for 24 hours, washed with PBS, and then collected by high-speed centrifugation. Total RNA was extracted using Trizol reagent (Sigma Aldrich), and RNA m6A methylation of a sample was quantitatively detected using an EpiQuik m6A RNA methylation quantification kit. The concentrations of positive control samples for a standard curve were 0.01 ng/µl, 0.02 ng/µl, 0.05 ng/µl, 0.1 ng/µl, 0.2 ng/µl, and 0.5 ng/µl. The absorbance at 450 nm was read using a microplate reader (Tecan GENios). A quantitative calculation formula for m6A is as follows: m6A(ng) = (absorbanceofsamplewell−absorbanceofbackroundwell)/slope of standard curve [formula] m6A(%) = m6A(ng)/RNA amount of sample(ng)*100%. [formula]

THP-1 cells = assay: m6A methylation level of THP-1 cells (LC-MS); assay type: cell-based; conditions: 24 hours
Procedure: 1*10^8 THP-1 cells were seeded in culture dishes, into which 4 nM and 400 nM compound of formula (I), 4 nM and 4 µM nicotinamide, and 5 µM m6A methyltransferase inhibitor UZH2 were added, respectively. The cells were cultured in an incubator containing 5% CO2 at 37°C for 24 hours. After discarding culture media and washing with PBS, the cells were centrifuged, and the supernatant was discarded. 400 µL of an RLT cell lysis buffer was added, and the cells were stored at -80°C. A portion of samples were selected, into which 400 µL of 70% ethanol was added and evenly stirred. 700 µL of a sample was transferred to an RNeasy centrifugation column and centrifuged for 15 seconds (8,000 g, 25°C). Then, 700 µL of an RW1 buffer solution was added and centrifuged for 15 seconds (8,000 g, 25°C), followed by the addition of 500 µL of an RPE buffer solution and centrifugation for 16 seconds (8,000 g, 25°C). The above steps were repeated twice, followed by centrifugation for 2 minutes to completely remove the eluent. 30 µL of nuclease-free water was added to a chromatographic column, and the cells were incubated for 5 minutes and then centrifuged for 2 minutes (12,000 g, 25°C). The steps were repeated 3 times. 2 µL of an RNA sample was selected and dissolved in 98 µL of a 10 mM Tris buffer solution, and the absorbance at 260 nm was measured using a Nanodrop to determine the RNA concentration.
50 µg of total RNA was selected and dissolved in 100 µL of nuclease-free water. Oligo (dT) magnetic beads were resuspended, 50 µL of the magnetic beads were transferred to a 1.5 mL test tube, 500 µL of a binding buffer solution was added, the mixture was allowed to stand, and the supernatant was removed. 100 µL of an RNA sample was added to 200 µL of a magnetic bead suspension for mixing, the mixture was stirred and incubated in a Thermomixer at 25°C for 5 minutes, the supernatant was discarded, and then 200 µL of a washing buffer solution was added. The steps were repeated 2 times, and then centrifugation was performed for 10 seconds (2,000 g, 25°C). 50 µL of an elution buffer solution was added and evenly mixed, the mixture was heated to 75°C, the supernatant was transferred to a new 1.5 mL test tube and purified using an RNA Clean & Concentrator kit, and the RNA concentration was determined.
20 µL (approximately 200 ng) of an mRNA sample and 20 µL of a Nuclease P1 digestion premix (including 0.5 µL of 2 unit/µL Nuclease P1, 0.4 µL of 5 M NaCl, 2 µL of 0.1 M ZnCl2, and 17.1 µL of PCR-grade water) were added into each test tube, and the mixture was stirred and incubated in a Thermomixer at 37°C for 2 hours. […] 20 µL of the supernatant was collected, an m6A methylation fragment was analyzed by LC-MS, and the m6A inhibition rate was calculated. […]

HaCaT cells [2] = assay: m6A methylation level of drug-treated HaCaT keratinocytes by nanopore sequencing; assay type: cell-based, human; conditions: 50 nM drug, 24 hours, vs blank control group
Procedure: 1*10^8 HaCaT cells were seeded in culture dishes, into which 50 nM drugs (including sorafenib, capecitabine, docetaxel, and osimertinib) were added, respectively. The cells were cultured in an incubator containing 5% CO2 at 37°C for 24 hours and washed with PBS after culture media were removed. Centrifugation was performed, the supernatant was discarded, and then, 400 µL of an RLT cell lysis buffer (QIAGEN, Cat.#79216) was added. A portion of samples were selected, into which 400 µL of 70% ethanol was added. The mixture was evenly stirred and then transferred to an RNeasy mini column, and RNA was extracted using an RNeasy mini kit (QIAGEN, Cat.#74104). 2 µL of an RNA sample was selected and dissolved in 98 µL of a 10 mM Tris-HCl buffer solution, and the absorbance at 260 nm was measured using a Nanodrop (Thermo Fisher Scientific) to determine the RNA concentration.
40 µg of an RNA sample was selected for enrichment of mRNA (PolyA+RNA) using an NEBNext Poly(A) mRNA magnetic isolation module (NEB, Cat.#E7490), and then, a 3' end of the above enriched mRNA (PolyA+RNA) molecule was ligated with reverse transcription adapter RTA using a direct RNA sequencing kit (Oxford Nanopore Technologies, Cat.#SQK-RNA002). A reverse transcription reaction was performed with the mRNA (PolyA+RNA) molecule as a template to synthesize a complementary strand, a terminal end of the reverse transcription adapter RTA was ligated with a sequencing adapter (RNA adapter) to form a final sequencing library, and quantitative detection was performed using a Qubit™ dsDNA HS assay kit (Invitrogen, Cat.#LOT2133187).
After quality inspection of the library, the prepared sequencing library was loaded onto a PromethION flow cell chip (Oxford Nanopore Technologies, Cat.#FLO-MIN106D), and placed in a PromethION sequencer (Oxford Nanopore Technologies) for sequencing by selecting a matched sequencing mode. Basecalling was performed on sequencing data through guppy, and m6A methylation analysis was performed on original fast5 data.

[3] = 400 nM after 50 nM capecitabine, relative to control group 1
[4] = 400 nM after 50 nM docetaxel, relative to control group 1
[5] = 400 nM after 50 nM osimertinib, relative to control group 1
[6] = 400 nM after 50 nM sorafenib, relative to control group 1
[7] = 50 nM drug alone, relative to control group 1 (DMSO)

SMILES | abnormal increase in the RNA m6A level of human keratinocytes caused by chemotherapeutic drugs and multikinase inhibitors (HaCaT cells [1]; 400 nM) | m6A fold change (HaCaT cells [1]; [3]) [fold] | m6A fold change (HaCaT cells [1]; [4]) [fold] | m6A fold change (HaCaT cells [1]; [5]) [fold] | m6A fold change (HaCaT cells [1]; [6]) [fold] | m6A methylation level of mRNA of the cells (THP-1 cells; 4 nM and 400 nM, concentration-dependent) | m6A inhibition activity (THP-1 cells; 400 nM) | inhibitory effect on the m6A methylation level of mRNA of the cells (THP-1 cells; high concentration (4 µM)) | inhibitory effect on the m6A methylation level of mRNA of the cells (THP-1 cells; low concentration (4 nM)) | m6A fold change (HaCaT cells [1]; [7]) [fold] | m6A methylation levels of HaCaT cells higher than that of the control group (HaCaT cells [2]) [fold]
NC(=O)[C@H]1CCCc2c1[nH]c1ccc(Cl)cc21 [Compound of formula (I), (S)-6-chloro-2,3,4,9-tetrahydro-1H-carbazole-carboxamide] | effectively inhibit | 1.1 | 1.0 | 1.2 | 1.4 | significantly inhibit | comparable to that of the m6A methyltransferase inhibitor UZH2 at a concentration of 5 µM | – | – | – | –
NC(=O)c1cccnc1 [Nicotinamide, nicotinamide] | – | 4.5 | 5.4 | 5.0 | 4.7 | – | – | no inhibitory effect | no inhibitory effect | – | –
C=CC(=O)Nc1cc(Nc2nccc(-c3cn(C)c4ccccc34)n2)c(OC)cc1N(C)CCN(C)C [Osimertinib, osimertinib] | – | – | – | – | – | – | – | – | – | 4.8 | 5.13
CNC(=O)c1cc(Oc2ccc(NC(=O)Nc3ccc(Cl)c(C(F)(F)F)c3)cc2)ccn1 [Sorafenib, sorafenib] | – | – | – | – | – | – | – | – | – | 4.5 | 5.05
